≈ marks a conversion by molar mass, not a printed value.
Assays:
[1] = target: Human plasma kallikrein (Homo sapiens (Human), UniProt P03952); assay: Determination of the IC50 for plasma kallikrein; type: biochemical; settings: 37° C., substrate H-DPro-Phe-Arg-AFC, read-out: IC50 (human PKal)
In short: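 Human plasma kallikrein incubated at 37° C with fluorogenic substrate H-DPro-Phe-Arg-AFC and varying compound concentrations. Initial reaction rate followed by absorbance change at 410 nm to give residual activity and IC50.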

[2] = target: Human KLK1 (Homo sapiens (Human), UniProt P06870); assay: Determination of the IC50 for KLK1; type: biochemical; settings: Human KLK1, 37° C., substrate H-DVal-Leu-Arg-AFC; Table 13
Chain of Human KLK1 (P06870 25-262): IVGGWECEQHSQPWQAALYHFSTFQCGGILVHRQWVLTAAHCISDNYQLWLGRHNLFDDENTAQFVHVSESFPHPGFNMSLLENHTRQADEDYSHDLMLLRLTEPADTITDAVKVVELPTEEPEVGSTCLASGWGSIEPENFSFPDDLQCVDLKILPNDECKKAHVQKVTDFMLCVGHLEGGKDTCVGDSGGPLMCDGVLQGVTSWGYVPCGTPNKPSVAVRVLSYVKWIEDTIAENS
In short: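 Human KLK1 incubated at 37° C with fluorogenic substrate H-DVal-Leu-Arg-AFC and a range of test compound concentrations. Residual activity taken as initial reaction rate from absorbance change at 410 nm; IC50 derived from these rates.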

[3] = Determination of thermodynamic solubility in phosphate buffer; type: physicochemical; settings: ammonium phosphate buffer pH7.4, 290 mOsm, 37° C., nominal 1 mg/mL; for solubility at 1 h: pH 7.4, aqueous buffer, thermodynamic from solid, read-out: Solubility in PO4 buffer
Protocol: Determination of Thermodynamic Solubility in Phosphate Buffer
The thermodynamic solubility of compound was determined in Ammonium Phosphate Buffer (pH7.4, 290 mOsm). Compounds were made up at a nominal concentration of 1 mg/mL, vortexed then placed on a shaker for 1 h, 37° C. at approximately 950 rpm. Following incubation samples were transferred to eppendorf tubes and centrifuged at 15,000 g (r.c.f.) for 10 minutes at 37° C. The concentration of compound in the supernatant was determined by LC-MS/MS analysis using a calibration line prepared from a DMSO stock.

Chain of Human plasma kallikrein (P03952 391-638): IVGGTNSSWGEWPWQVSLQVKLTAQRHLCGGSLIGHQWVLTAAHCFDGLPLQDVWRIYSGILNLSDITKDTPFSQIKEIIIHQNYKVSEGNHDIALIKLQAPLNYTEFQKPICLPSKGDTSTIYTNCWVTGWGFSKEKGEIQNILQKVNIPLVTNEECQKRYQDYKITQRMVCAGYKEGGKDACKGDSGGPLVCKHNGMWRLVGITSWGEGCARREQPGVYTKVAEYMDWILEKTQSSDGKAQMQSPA
Chain of Human plasma kallikrein (P03952 20-390 partner): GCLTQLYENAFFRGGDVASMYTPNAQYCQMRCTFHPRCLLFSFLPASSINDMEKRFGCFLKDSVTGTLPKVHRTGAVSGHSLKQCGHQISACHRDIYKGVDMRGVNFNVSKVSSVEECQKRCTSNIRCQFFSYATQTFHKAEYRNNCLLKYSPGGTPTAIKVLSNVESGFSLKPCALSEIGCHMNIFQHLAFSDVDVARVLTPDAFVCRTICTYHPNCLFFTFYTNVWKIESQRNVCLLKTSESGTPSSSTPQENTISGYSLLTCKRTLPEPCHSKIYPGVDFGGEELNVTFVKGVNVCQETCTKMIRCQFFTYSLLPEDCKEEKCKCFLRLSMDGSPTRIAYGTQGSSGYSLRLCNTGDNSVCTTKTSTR

SMILES | IC50 [1] | IC50 [2] | solubility at 1 h [3] | solubility in PO4 buffer ([3]; 1 h)
CCOc1ccc(C[C@@H](NC(=O)c2sccc2Cl)C(=O)N[C@@H](Cc2ccccc2)C(=O)NCc2ccc(CN)cc2)cc1 [Example 116, 3-Chloro-thiophene-2-carboxylic acid [(R)-1-[(S)-1-(4-aminomethyl-benzylcarbamoyl)-2-phenyl-ethylcarbamoyl]-2-(4-ethoxy-phenyl)-ethyl]-amide] | 18 nM | 6.3 µM | 1.39 µg/mL (≈ 2.24 µM) | –
CCOc1ccc(C[C@@H](NC(=O)c2sccc2C)C(=O)N[C@@H](Cc2ccccc2)C(=O)NCc2ccc(CN)cc2)cc1 [Example 119, 3-Methyl-thiophene-2-carboxylic acid [(R)-1-[(S)-1-(4-aminomethyl-benzylcarbamoyl)-2-phenyl-ethylcarbamoyl]-2-(4-ethoxy-phenyl)-ethyl]-amide] | 15 nM | 6.1 µM | 1.61 µg/mL (≈ 2.69 µM) | –
CCOc1ccc(C[C@@H](NC(=O)c2ccccc2)C(=O)N[C@@H](Cc2cccs2)C(=O)NCc2ccc(CN)cc2)cc1 [Example 150, N-[(R)-1-[(S)-1-(4-Aminomethyl-benzylcarbamoyl)-2-thiophen-2-yl-ethylcarbamoyl]-2-(4-ethoxy-phenyl)-ethyl]-benzamide] | 51 nM | > 10 µM | 0.12 µg/mL (≈ 0.205 µM) | –
CCOc1ccc(C[C@@H](NC(=O)c2ccccc2)C(=O)N[C@@H](Cc2ccsc2)C(=O)NCc2ccc(CN)cc2)cc1 [Example 151] | 9 nM | > 10 µM | – | 4.31 µg/mL (≈ 7.37 µM)
CCOc1ccc(C[C@@H](NC(=O)c2ccccc2)C(=O)N[C@@H](Cc2ccccc2)C(=O)NCc2ccc(CN)c(Cl)c2)cc1 [Example 155, N-[(R)-1-[(S)-1-(4-Aminomethyl-3-chloro-benzylcarbamoyl)-2-phenyl-ethylcarbamoyl]-2-(4-ethoxy-phenyl)-ethyl]-benzamide] | 22 nM | > 10 µM | 0.44 µg/mL (≈ 0.718 µM) | –
CCOc1ccc(C[C@@H](NC(=O)c2ccc(OC)cc2)C(=O)N[C@@H](Cc2ccccn2)C(=O)NCc2ccc(CN)cc2)cc1 [Example 158, N-[(R)-1-[(S)-1-(4-Aminomethyl-benzylcarbamoyl)-2-pyridin-2-yl-ethylcarbamoyl]-2-(4-ethoxy-phenyl)-ethyl]-4-methoxy-benzamide] | 47 nM | > 10 µM | 70.6 µg/mL (≈ 116 µM) | –
CCOc1ccc(C[C@@H](NC(=O)c2ccc(OC)cc2)C(=O)N[C@@H](Cc2cccnc2)C(=O)NCc2ccc(CN)cc2)cc1 [Example 160, N-[(R)-1-[(S)-1-(4-Aminomethyl-benzylcarbamoyl)-2-pyridin-3-yl-ethylcarbamoyl]-2-(4-ethoxy-phenyl)-ethyl]-4-methoxy-benzamide] | 10 nM | > 10 µM | 20.4 µg/mL (≈ 33.5 µM) | –
CCOc1ccc(C[C@@H](NC(=O)c2ccc(Cl)cc2)C(=O)N[C@@H](Cc2cccnc2)C(=O)NCc2ccc(CN)cc2)cc1 [Example 173, N-[(R)-1-[(S)-1-(4-Aminomethyl-benzylcarbamoyl)-2-pyridin-3-yl-ethylcarbamoyl]-2-(4-ethoxy-phenyl)-ethyl]-4-chloro-benzamide] | 213 nM | > 10 µM | 2.38 µg/mL (≈ 3.88 µM) | –
CCOc1ccc(C[C@@H](NC(=O)c2ccno2)C(=O)N[C@@H](Cc2cccnc2)C(=O)NCc2ccc(CN)cc2)cc1 [Example 174, Isoxazole-5-carboxylic acid [(R)-1-[(S)-1-(4-aminomethyl-benzylcarbamoyl)-2-pyridin-3-yl-ethylcarbamoyl]-2-(4-ethoxy-phenyl)-ethyl]-amide] | 45 nM | > 10 µM | 233 µg/mL (≈ 408 µM) | –

The remaining lines, values ahead:

IC50 [1] | IC50 [2] | solubility at 1 h [3] | solubility in PO4 buffer ([3]; 1 h) | SMILES
20 nM | 8.4 µM | 64.5 µg/mL (≈ 111 µM) | – | CCOc1ccc(C[C@@H](NC(=O)c2[nH]ccc2C)C(=O)N[C@@H](Cc2ccccc2)C(=O)NCc2ccc(CN)cc2)cc1 [Example 124, 3-Methyl-1H-pyrrole-2-carboxylic acid [(R)-1-[(S)-1-(4-aminomethyl-benzylcarbamoyl)-2-phenyl-ethylcarbamoyl]-2-(4-ethoxy-phenyl)-ethyl]-amide]
10 nM | 7 µM | 43.6 µg/mL (≈ 72.7 µM) | – | CCOc1ccc(C[C@@H](NC(=O)c2sccc2N)C(=O)N[C@@H](Cc2ccccc2)C(=O)NCc2ccc(CN)cc2)cc1 [Example 125, 3-Amino-thiophene-2-carboxylic acid [(R)-1-[(S)-1-(4-aminomethyl-benzylcarbamoyl)-2-phenyl-ethylcarbamoyl]-2-(4-ethoxy-phenyl)-ethyl]-amide]
45 nM | > 10 µM | 79.6 µg/mL (≈ 137 µM) | – | CCOc1ccc(C[C@@H](NC(=O)c2ccccc2)C(=O)N[C@@H](Cc2ccccn2)C(=O)NCc2ccc(CN)cc2)cc1 [Example 140, N-[(R)-1-[(S)-1-(4-Aminomethyl-benzylcarbamoyl)-2-pyridin-2-yl-ethylcarbamoyl]-2-(4-ethoxy-phenyl)-ethyl]-benzamide]
55 nM | > 10 µM | 0.15 µg/mL (≈ 0.232 µM) | – | CCOc1ccc(C[C@@H](NC(=O)c2ccccc2)C(=O)N[C@@H](Cc2ccc(Cl)c(Cl)c2)C(=O)NCc2ccc(CN)cc2)cc1 [Example 141, N-[(R)-1-[(S)-1-(4-Aminomethyl-benzylcarbamoyl)-2-(3,4-dichloro-phenyl)-ethylcarbamoyl]-2-(4-ethoxy-phenyl)-ethyl]-benzamide]
83 nM | > 10 µM | 2.86 µg/mL (≈ 4.79 µM) | – | CCOc1ccc(C[C@@H](NC(=O)c2ccccc2)C(=O)N[C@@H](Cc2ccc(F)cc2)C(=O)NCc2ccc(CN)cc2)cc1 [Example 143, N-[(R)-1-[(S)-1-(4-Aminomethyl-benzylcarbamoyl)-2-(4-fluoro-phenyl)-ethylcarbamoyl]-2-(4-ethoxy-phenyl)-ethyl]-benzamide]
25 nM | > 10 µM | 68.9 µg/mL (≈ 119 µM) | – | CCOc1ccc(C[C@@H](NC(=O)c2ccccc2)C(=O)N[C@@H](Cc2cccnc2)C(=O)NCc2ccc(CN)cc2)cc1 [Example 145, N-[(R)-1-[(S)-1-(4-Aminomethyl-benzylcarbamoyl)-2-pyridin-3-yl-ethylcarbamoyl]-2-(4-ethoxy-phenyl)-ethyl]-benzamide]
23 nM | > 10 µM | 122 µg/mL (≈ 209 µM) | – | CCOc1ccc(C[C@@H](NC(=O)c2ccccc2)C(=O)N[C@@H](Cc2cscn2)C(=O)NCc2ccc(CN)cc2)cc1 [Example 152, N-[(R)-1-[(S)-1-(4-Aminomethyl-benzylcarbamoyl)-2-thiazol-4-yl-ethylcarbamoyl]-2-(4-ethoxy-phenyl)-ethyl]-benzamide]
10 nM | > 10 µM | 0.19 µg/mL (≈ 0.299 µM) | – | CCOc1ccc(C[C@@H](NC(=O)c2ccccc2)C(=O)N[C@@H](Cc2csc3ccccc23)C(=O)NCc2ccc(CN)cc2)cc1 [Example 153, N-[(R)-1-[(S)-1-(4-Aminomethyl-benzylcarbamoyl)-2-benzo[b]thiophen-3-yl-ethylcarbamoyl]-2-(4-ethoxy-phenyl)-ethyl]-benzamide]
21 nM | > 10 µM | 3.14 µg/mL (≈ 5.26 µM) | – | CCOc1ccc(C[C@@H](NC(=O)c2ccccc2)C(=O)N[C@@H](Cc2ccccc2)C(=O)NCc2ccc(CN)c(F)c2)cc1 [Example 154, N-[(R)-1-[(S)-1-(4-Aminomethyl-3-fluoro-benzylcarbamoyl)-2-phenyl-ethylcarbamoyl]-2-(4-ethoxy-phenyl)-ethyl]-benzamide]
15 nM | > 10 µM | 1.15 µg/mL (≈ 1.87 µM) | – | CCOc1ccc(C[C@@H](NC(=O)c2ccccn2)C(=O)N[C@@H](Cc2ccccc2)C(=O)NCc2ccc(CN)c(Cl)c2)cc1 [Example 159, Pyridine-2-carboxylic acid [(R)-1-[(S)-1-(4-aminomethyl-3-chloro-benzylcarbamoyl)-2-phenyl-ethylcarbamoyl]-2-(4-ethoxy-phenyl)-ethyl]-amide]
10 nM | > 10 µM | 69.7 µg/mL (≈ 119 µM) | – | CCOc1ccc(C[C@@H](NC(=O)c2cccs2)C(=O)N[C@@H](Cc2cccnc2)C(=O)NCc2ccc(CN)cc2)cc1 [Example 162, Thiophene-2-carboxylic acid [(R)-1-[(S)-1-(4-aminomethyl-benzylcarbamoyl)-2-pyridin-3-yl-ethylcarbamoyl]-2-(4-ethoxy-phenyl)-ethyl]-amide]
3 nM | > 10 µM | 23.4 µg/mL (≈ 37.7 µM) | – | CCOc1ccc(C[C@@H](NC(=O)c2sccc2Cl)C(=O)N[C@@H](Cc2cccnc2)C(=O)NCc2ccc(CN)cc2)cc1 [Example 175, 3-Chloro-thiophene-2-carboxylic acid [(R)-1-[(S)-1-(4-aminomethyl-benzylcarbamoyl)-2-pyridin-3-yl-ethylcarbamoyl]-2-(4-ethoxy-phenyl)-ethyl]-amide]
42 nM | > 10 µM | 1.54 µg/mL (≈ 2.42 µM) | – | CCOc1ccc(C[C@@H](NC(=O)c2ccncc2)C(=O)N[C@@H](Cc2csc3ccccc23)C(=O)NCc2ccc(CN)cc2)cc1 [Example 178, N-[(R)-1-[(S)-1-(4-Aminomethyl-benzylcarbamoyl)-2-benzo[b]thiophen-3-yl-ethylcarbamoyl]-2-(4-ethoxy-phenyl)-ethyl]-isonicotinamide]
